Laboratory results from paper PMC9011347, “Small-Molecule Inhibitors Targeting Lipolysis in Human Adipocytes” (Journal of the American Chemical Society, 2022).

Legend:
[1] = molecular target: T1, human ATGL (Homo sapiens, UniProt Q96AD5); design: method as in PMID 28327588; details: cited from earlier work
T1 construct: host or cells: Expi293 cells, crude lysate
T1 sequence (Q96AD5 1-504): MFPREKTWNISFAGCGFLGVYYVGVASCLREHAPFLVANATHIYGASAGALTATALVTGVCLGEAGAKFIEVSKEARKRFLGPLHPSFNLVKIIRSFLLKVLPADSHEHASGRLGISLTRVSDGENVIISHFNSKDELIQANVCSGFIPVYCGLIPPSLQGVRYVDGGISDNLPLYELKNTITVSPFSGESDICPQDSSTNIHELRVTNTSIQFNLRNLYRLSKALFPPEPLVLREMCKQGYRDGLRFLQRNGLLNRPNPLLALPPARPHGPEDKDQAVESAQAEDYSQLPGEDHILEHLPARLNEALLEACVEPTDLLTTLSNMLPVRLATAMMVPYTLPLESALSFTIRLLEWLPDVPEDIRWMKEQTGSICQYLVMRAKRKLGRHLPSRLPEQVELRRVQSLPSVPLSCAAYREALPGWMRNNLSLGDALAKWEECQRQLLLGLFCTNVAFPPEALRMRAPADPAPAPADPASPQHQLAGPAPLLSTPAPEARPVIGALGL

[2] = system: HepG2 cells; test: LDH-based cytotoxicity assay; assay type: cell-based, human; details: 24 h, up to a concentration of 100 μM
Experimental: Figure 2 Development and characterization of the human ATGL inhibitor NG-497. (a) Structure and IC50 values of human ATGL inhibitors. (b) Dose-dependent inhibition of human ATGL by respective inhibitors. (c) ATGL activity was determined at the indicated substrate concentrations in the absence and presence of NG-497 (0.5 μM). Ki was determined by nonlinear regression analysis using GraphPad Prism. Lineweaver–Burk analysis of ATGL inhibition is shown in the inset. (d) Toxicity of NG-497 in HepG2 cells was determined after 24 h incubation at indicated concentrations. Cisplatin and DMSO were used as positive and negative controls, respectively. Cytotoxicity was determined using the Roche LDH Kit and calculated as relative LDH release compared to fully lysed cells. (e) Stability of NG-497 was analyzed via ultrahigh-performance liquid chromatography–mass spectrometry (UHPLC-MS) after incubation in human serum for 0 or 3 h at 37 °C. Atglistatin and a chemically related unstable compound were used as controls. […] NG-497 concentrations/well were determined at the indicated time points using UHPLC-MS. […] Statistical significance was determined via t test (*p < 0.05; **p < 0.01; ***p < 0.001) or ANOVA followed by Bonferroni post hoc test (^###p < 0.001). […] The detected 297 lipid species of both groups were analyzed with supervised multivariate analysis OPLS-DA and are shown as a loading plot. […]

Row | Structure (SMILES) | efficacy against human ATGL [1] | cytotoxicity (relative LDH release) [2]
1 | CN(C)C(=O)Nc1cccc(-c2ccc(N(C)C)cc2)c1 [Atglistatin, reference compound] | ineffective | 
2 | CCOc1ccc(-c2cc(OC)cc(C(=O)OC(C)C)n2)cc1 [NG-497] |  | no toxic effects
